Laboratory results from publication PMC5218480 (PLoS ONE, 2017).

System: MV-4-11 cells
Assay: Gene expression microarray analysis (Affymetrix PrimeView) and GSEA
Type: cell-based, human
Parameters: RFU PODN (11730768_x_at) / Fold change /veh PODN (11730768_x_at) / RFU LINC00158 (11744669_a_at) / Fold change /veh LINC00158 (11744669_a_at) / RFU DUSP10 (11751237_a_at) / Fold change /veh DUSP10 (11751237_a_at) / RFU ID3 (11757404_x_at) / Fold change /veh ID3 (11757404_x_at) / RFU PLEKHG5 (11737974_s_at) / Fold change /veh PLEKHG5 (11737974_s_at) / RFU LRRC4B (11730491_at) / Fold change /veh LRRC4B (11730491_at) / RFU GIMAP4 (11747438_a_at) / Fold change /veh GIMAP4 (11747438_a_at) / RFU KRT8 (11758183_x_at) / Fold change /veh KRT8 (11758183_x_at) / RFU CNN1 (11734310_a_at) / Fold change /veh CNN1 (11734310_a_at) / RFU VPS37D (11726825_at) / Fold change /veh VPS37D (11726825_at) / RFU C10orf10 (11716522_x_at) / Fold change /veh C10orf10 (11716522_x_at) / RFU KIR2DL2 /// KIR2DL4 /// KIR2DL5A /// KIR2DL5B /// KIR2DS1 /// KIR2DS2 /// KIR2DS3 /// KIR2DS4 /// KIR3DL3 /// KIR3DL3 /// KIR3DS1 (11738374_at) / Fold change /veh KIR2DL2 /// KIR2DL4 /// KIR2DL5A /// KIR2DL5B /// KIR2DS1 /// KIR2DS2 /// KIR2DS3 /// KIR2DS4 /// KIR3DL3 /// KIR3DL3 /// KIR3DS1 (11738374_at) / RFU C1QL1 (11718748_at) / Fold change /veh C1QL1 (11718748_at) / RFU TMPRSS4 (11747572_a_at) / Fold change /veh TMPRSS4 (11747572_a_at) / RFU HAMP (11756126_x_at) / Fold change /veh HAMP (11756126_x_at) / RFU RNFT2 (11725882_a_at) / Fold change /veh RNFT2 (11725882_a_at) / RFU NR4A2 (11747474_a_at) / Fold change /veh NR4A2 (11747474_a_at) / RFU ABCC12 (11746883_a_at) / Fold change /veh ABCC12 (11746883_a_at) / RFU TMEM136 (11760407_x_at) / Fold change /veh TMEM136 (11760407_x_at) / RFU CLDN22 /// WWC2 (11732394_at) / Fold change /veh CLDN22 /// WWC2 (11732394_at) / RFU HLA-DPB1 (11760878_x_at) / Fold change /veh HLA-DPB1 (11760878_x_at) / RFU SPINT1 (11716480_a_at) / Fold change /veh SPINT1 (11716480_a_at) / RFU GAP43 (11754022_s_at) / Fold change /veh GAP43 (11754022_s_at) / RFU A4GNT (11735810_at) / Fold change /veh A4GNT (11735810_at) / RFU PRB3 (11715151_x_at) / Fold change /veh PRB3 (11715151_x_at) / RFU TUBB4B (11761932_at) / Fold change /veh TUBB4B (11761932_at) / RFU CAPN14 (11732068_a_at) / Fold change /veh CAPN14 (11732068_a_at) / RFU TMCC2 (11721928_a_at) / Fold change /veh TMCC2 (11721928_a_at) / RFU IRGQ (11745062_a_at) / Fold change /veh IRGQ (11745062_a_at) / RFU FAM174B (11720279_a_at) / Fold change /veh FAM174B (11720279_a_at) / RFU TMPRSS4 (11748680_a_at) / Fold change /veh TMPRSS4 (11748680_a_at) / RFU FAM212B (11763350_a_at) / Fold change /veh FAM212B (11763350_a_at) / RFU PLEKHG5 (11743358_a_at) / Fold change /veh PLEKHG5 (11743358_a_at) / RFU ZSCAN30 (11745921_a_at) / Fold change /veh ZSCAN30 (11745921_a_at) / RFU CMKLR1 (11741424_a_at) / Fold change /veh CMKLR1 (11741424_a_at) / RFU LOC101060620 /// MAPK8IP1 (11723275_at) / Fold change /veh LOC101060620 /// MAPK8IP1 (11723275_at) / RFU SPTSSB (11747773_x_at) / Fold change /veh SPTSSB (11747773_x_at) / RFU PRSS12 (11739890_at) / Fold change /veh PRSS12 (11739890_at) / RFU BIN1 (11741810_x_at) / Fold change /veh BIN1 (11741810_x_at) / RFU WNT11 (11732464_a_at) / Fold change /veh WNT11 (11732464_a_at) / RFU C10orf10 (11716521_a_at) / Fold change /veh C10orf10 (11716521_a_at) / RFU C5orf56 (11738089_at) / Fold change /veh C5orf56 (11738089_at) / RFU CYB561 (11721691_x_at) / Fold change /veh CYB561 (11721691_x_at) / RFU ANKRD19P (11752326_a_at) / Fold change /veh ANKRD19P (11752326_a_at) / RFU OR2T12 /// OR2T33 /// OR2T8 (11738714_s_at) / Fold change /veh OR2T12 /// OR2T33 /// OR2T8 (11738714_s_at) / RFU VCAN (11748164_a_at) / Fold change /veh VCAN (11748164_a_at) / RFU JSRP1 (11732532_at) / Fold change /veh JSRP1 (11732532_at) / RFU KRTAP10-11 (11738290_x_at) / Fold change /veh KRTAP10-11 (11738290_x_at) / RFU MYO3A (11730013_a_at) / Fold change /veh MYO3A (11730013_a_at) / RFU EBF3 (11725865_a_at) / Fold change /veh EBF3 (11725865_a_at) / RFU CAMK2N1 (11719241_x_at) / Fold change /veh CAMK2N1 (11719241_x_at) / RFU C5orf56 (11738088_a_at) / Fold change /veh C5orf56 (11738088_a_at) / RFU OLFML3 (11715873_a_at) / Fold change /veh OLFML3 (11715873_a_at) / RFU LOC100653217 /// NTM (11731650_a_at) / Fold change /veh LOC100653217 /// NTM (11731650_a_at) / RFU MAPK11 (11762145_a_at) / Fold change /veh MAPK11 (11762145_a_at) / RFU FIZ1 (11724087_x_at) / Fold change /veh FIZ1 (11724087_x_at) / RFU OASL (11726364_x_at) / Fold change /veh OASL (11726364_x_at) / RFU SOX15 (11748057_x_at) / Fold change /veh SOX15 (11748057_x_at) / RFU CD79A (11719716_a_at) / Fold change /veh CD79A (11719716_a_at) / RFU HIST1H1D (11736915_at) / Fold change /veh HIST1H1D (11736915_at) / RFU CASKIN2 (11723855_a_at) / Fold change /veh CASKIN2 (11723855_a_at) / RFU LOC730098 (11760151_x_at) / Fold change /veh LOC730098 (11760151_x_at) / RFU OR4N2 (11742367_at) / Fold change /veh OR4N2 (11742367_at) / RFU PRRT2 (11749266_a_at) / Fold change /veh PRRT2 (11749266_a_at) / RFU SNX32 (11753110_a_at) / Fold change /veh SNX32 (11753110_a_at) / RFU CDHR5 (11726645_a_at) / Fold change /veh CDHR5 (11726645_a_at) / RFU RCAN1 (11760418_a_at) / Fold change /veh RCAN1 (11760418_a_at) / RFU FAM167A (11723789_a_at) / Fold change /veh FAM167A (11723789_a_at) / RFU FAM26E (11764081_at) / Fold change /veh FAM26E (11764081_at) / RFU ISYNA1 (11749810_s_at) / Fold change /veh ISYNA1 (11749810_s_at) / RFU ACY1 (11761880_at) / Fold change /veh ACY1 (11761880_at) / RFU 11764098_at / Fold change /veh 11764098_at / RFU SAMD14 (11745864_x_at) / Fold change /veh SAMD14 (11745864_x_at) / RFU NPB (11741838_a_at) / Fold change /veh NPB (11741838_a_at) / RFU TMPRSS6 (11731388_a_at) / Fold change /veh TMPRSS6 (11731388_a_at) / RFU KRTAP10-2 (11738614_at) / Fold change /veh KRTAP10-2 (11738614_at) / RFU ARHGAP8 /// PRR5-ARHGAP8 (11727945_x_at) / Fold change /veh ARHGAP8 /// PRR5-ARHGAP8 (11727945_x_at) / RFU KRTAP5-7 /// NADSYN1 (11734609_at) / Fold change /veh KRTAP5-7 /// NADSYN1 (11734609_at) / RFU RASL12 (11751679_a_at) / Fold change /veh RASL12 (11751679_a_at) / RFU CDKN2B (11736163_a_at) / Fold change /veh CDKN2B (11736163_a_at) / RFU PRF1 (11729649_at) / Fold change /veh PRF1 (11729649_at) / RFU, ZNF638 /// ZNF638-IT1 / Fold change vs veh, ZNF638 /// ZNF638-IT1 / RFU, PANK3 / Fold change vs veh, PANK3 / RFU, SH3YL1 / Fold change vs veh, SH3YL1 / RFU, ZEB2 / Fold change vs veh, ZEB2 / RFU, NRIP1 / Fold change vs veh, NRIP1 / RFU, PTTG1IP / Fold change vs veh, PTTG1IP / RFU, CAPN2 / Fold change vs veh, CAPN2 / RFU, MED14 / Fold change vs veh, MED14 / RFU, SNORA58 / Fold change vs veh, SNORA58 / RFU, C1orf63 / Fold change vs veh, C1orf63 / RFU, LRRFIP1 / Fold change vs veh, LRRFIP1 / RFU, NDUFAF7 / Fold change vs veh, NDUFAF7 / RFU, SLC12A2 / Fold change vs veh, SLC12A2 / RFU, IBTK / Fold change vs veh, IBTK / RFU, ESF1 / Fold change vs veh, ESF1 / Fold change vs veh, TMEM50B / RFU, TAOK1 / Fold change vs veh, TAOK1 / RFU, ACBD3 / Fold change vs veh, ACBD3 / RFU, TMA16 / Fold change vs veh, TMA16 / RFU, RWDD3 / Fold change vs veh, RWDD3 / RFU, BCAT1 / Fold change vs veh, BCAT1 / RFU, EDEM3 / Fold change vs veh, EDEM3 / RFU, TMEM33 / Fold change vs veh, TMEM33 / RFU, WDR75 / Fold change vs veh, WDR75 / RFU, AHCTF1 / Fold change vs veh, AHCTF1 / RFU, TFRC / Fold change vs veh, TFRC / RFU, ZDHHC17 / Fold change vs veh, ZDHHC17 / RFU, NOM1 / Fold change vs veh, NOM1 / RFU, ARL8B / Fold change vs veh, ARL8B / RFU, ZBTB11 / Fold change vs veh, ZBTB11 / RFU, TAMM41 / Fold change vs veh, TAMM41 / RFU, KIAA1704 /// LOC100996395 / Fold change vs veh, KIAA1704 /// LOC100996395 / RFU, ING1 / Fold change vs veh, ING1 / RFU, TRMT61B / Fold change vs veh, TRMT61B / RFU, FUBP3 / Fold change vs veh, FUBP3 / RFU, TP53 / Fold change vs veh, TP53 / RFU, TNKS2 / Fold change vs veh, TNKS2 / RFU, ZFP14 / Fold change vs veh, ZFP14 / RFU, ACTR2 / Fold change vs veh, ACTR2 / RFU, PPP3R1 / Fold change vs veh, PPP3R1 / RFU, PIK3R1 / Fold change vs veh, PIK3R1 / RFU, HNRNPA1 / Fold change vs veh, HNRNPA1 / RFU, RNF170 / Fold change vs veh, RNF170 / RFU, ZNF28 / Fold change vs veh, ZNF28 / RFU, RNGTT / Fold change vs veh, RNGTT / RFU, OGT / Fold change vs veh, OGT / RFU, BRD1 / Fold change vs veh, BRD1 / RFU, MARS / Fold change vs veh, MARS / RFU, ZNF655 / Fold change vs veh, ZNF655 / RFU, FAHD1 / Fold change vs veh, FAHD1 / RFU, BDP1 / Fold change vs veh, BDP1 / RFU, LRRCC1 / Fold change vs veh, LRRCC1 / RFU, ARID1A / Fold change vs veh, ARID1A / RFU, ZNF146 / Fold change vs veh, ZNF146 / RFU, ZNF330 / Fold change vs veh, ZNF330 / RFU, GPN3 / Fold change vs veh, GPN3 / RFU, C9orf123 / Fold change vs veh, C9orf123 / RFU, N4BP2L2 / Fold change vs veh, N4BP2L2 / RFU, ARFIP1 / Fold change vs veh, ARFIP1 / RFU, FAM179B / Fold change vs veh, FAM179B / RFU, BCL10 / Fold change vs veh, BCL10 / RFU, UHRF1BP1L / Fold change vs veh, UHRF1BP1L / RFU, BET1 / Fold change vs veh, BET1 / RFU, CNOT2 / Fold change vs veh, CNOT2 / RFU, ZNF268 / Fold change vs veh, ZNF268 / Fold change vs veh, ZNF507 / RFU, DGCR2 / Fold change vs veh, DGCR2 / RFU, WDSUB1 / Fold change vs veh, WDSUB1 / Fold change vs veh, HSP90B1 /// MIR3652 / RFU, ADSS / Fold change vs veh, ADSS / RFU, GK / Fold change vs veh, GK / RFU, ZNF148 / Fold change vs veh, ZNF148 / RFU, TAF9 / Fold change vs veh, TAF9 / RFU, SLC1A5 / Fold change vs veh, SLC1A5 / RFU, SLMO2 / Fold change vs veh, SLMO2 / RFU, ABCC4 / Fold change vs veh, ABCC4 / RFU, LOC101060439 /// RAP1B / Fold change vs veh, LOC101060439 /// RAP1B / RFU, RFX7 / Fold change vs veh, RFX7 / RFU, GTPBP10 / Fold change vs veh, GTPBP10 / RFU, CNEP1R1 / Fold change vs veh, CNEP1R1 / RFU, BIVM-ERCC5 /// ERCC5 / Fold change vs veh, BIVM-ERCC5 /// ERCC5 / RFU, ILF3 / Fold change vs veh, ILF3 / RFU 11762660_at / Fold change /veh 11762660_at / RFU VCAN (11757783_s_at) / Fold change /veh VCAN (11757783_s_at) / RFU DDX43 (11728927_at) / Fold change /veh DDX43 (11728927_at) / RFU KRT8 (11758188_x_at) / Fold change /veh KRT8 (11758188_x_at) / RFU NKD1 (11759106_at) / Fold change /veh NKD1 (11759106_at) / RFU SRD5A1 (11742802_a_at) / Fold change /veh SRD5A1 (11742802_a_at) / RFU TPSAB1 /// TPSB2 (11721975_s_at) / Fold change /veh TPSAB1 /// TPSB2 (11721975_s_at) / RFU GSTM3 (11746129_a_at) / Fold change /veh GSTM3 (11746129_a_at) / RFU IL23R (11737362_x_at) / Fold change /veh IL23R (11737362_x_at) / RFU TMEM51 (11727254_a_at) / Fold change /veh TMEM51 (11727254_a_at) / RFU PIWIL2 (11732686_x_at) / Fold change /veh PIWIL2 (11732686_x_at) / RFU ORM1 (11744905_x_at) / Fold change /veh ORM1 (11744905_x_at) / RFU CCDC152 (11743942_at) / Fold change /veh CCDC152 (11743942_at) / RFU ECM1 (11717891_a_at) / Fold change /veh ECM1 (11717891_a_at) / RFU IL23R (11748794_a_at) / Fold change /veh IL23R (11748794_a_at) / RFU TNFAIP8L3 (11732012_x_at) / Fold change /veh TNFAIP8L3 (11732012_x_at) / RFU MBOAT4 (11741988_at) / Fold change /veh MBOAT4 (11741988_at) / RFU 11764193_at / Fold change /veh 11764193_at / RFU TMEM53 (11763286_at) / Fold change /veh TMEM53 (11763286_at) / RFU MAGEB2 (11727129_at) / Fold change /veh MAGEB2 (11727129_at) / RFU TMEM200A (11744735_a_at) / Fold change /veh TMEM200A (11744735_a_at) / RFU CCDC152 (11751479_a_at) / Fold change /veh CCDC152 (11751479_a_at) / RFU FAM211A (11726209_a_at) / Fold change /veh FAM211A (11726209_a_at) / RFU RGS16 (11746705_a_at) / Fold change /veh RGS16 (11746705_a_at) / RFU VCAN (11755009_s_at) / Fold change /veh VCAN (11755009_s_at) / RFU RHOB (11743442_s_at) / Fold change /veh RHOB (11743442_s_at) / RFU RGS16 (11720943_a_at) / Fold change /veh RGS16 (11720943_a_at) / RFU RGS16 (11720944_at) / Fold change /veh RGS16 (11720944_at) / RFU, VPS4B / Fold change vs veh, VPS4B / RFU, CREB1 / Fold change vs veh, CREB1 / RFU, DNAJC13 / Fold change vs veh, DNAJC13 / RFU, GNAQ / Fold change vs veh, GNAQ / RFU, CDK5R1 / Fold change vs veh, CDK5R1 / RFU, ZRANB3 / Fold change vs veh, ZRANB3 / RFU, CUL4A / Fold change vs veh, CUL4A / RFU, CCNY / Fold change vs veh, CCNY / RFU, UFL1 / Fold change vs veh, UFL1 / RFU, COG3 / Fold change vs veh, COG3 / RFU, DIAPH2 / Fold change vs veh, DIAPH2 / RFU, SKA2 / Fold change vs veh, SKA2 / RFU, AFF3 / Fold change vs veh, AFF3 / RFU, LMF1 / Fold change vs veh, LMF1 / RFU, IPO11 / Fold change vs veh, IPO11 / RFU, DFFB / Fold change vs veh, DFFB / RFU, FOXP1 / Fold change vs veh, FOXP1 / RFU, CARD8 / Fold change vs veh, CARD8 / RFU, STRN3 / Fold change vs veh, STRN3 / RFU, ADK / Fold change vs veh, ADK / RFU, RASSF2 / Fold change vs veh, RASSF2 / RFU, WIPF1 / Fold change vs veh, WIPF1 / RFU, LARP1B / Fold change vs veh, LARP1B / RFU, RASA1 / Fold change vs veh, RASA1 / RFU, RB1 / Fold change vs veh, RB1 / RFU, PPFIA1 / Fold change vs veh, PPFIA1 / RFU, MAT2A / Fold change vs veh, MAT2A / RFU, CCT5 / Fold change vs veh, CCT5 / RFU, WDR92 / Fold change vs veh, WDR92 / RFU, CUX1 / Fold change vs veh, CUX1 / RFU, TTC7A / Fold change vs veh, TTC7A / RFU, TMEM135 / Fold change vs veh, TMEM135 / RFU, DEPTOR / Fold change vs veh, DEPTOR / RFU, CPM / Fold change vs veh, CPM / RFU, DNAJB6 / Fold change vs veh, DNAJB6 / RFU, CACNA2D3 / Fold change vs veh, CACNA2D3 / RFU, DTX4 / Fold change vs veh, DTX4 / RFU, TFCP2 / Fold change vs veh, TFCP2 / RFU, GMCL1 /// GMCL1P1 / Fold change vs veh, GMCL1 /// GMCL1P1 / RFU, AEBP2 / Fold change vs veh, AEBP2 / RFU, SNHG1 /// SNORD22 /// SNORD25 /// SNORD26 /// SNORD27 /// SNORD28 /// SNORD29 /// SNORD31 / Fold change vs veh, SNHG1 /// SNORD22 /// SNORD25 /// SNORD26 /// SNORD27 /// SNORD28 /// SNORD29 /// SNORD31 / Fold change (Aza/veh), C12orf56 (ProbeSet 11735607_a_at) / Fold change (ACY-1035/veh), C12orf56 (ProbeSet 11735607_a_at) / Fold change (Aza/veh), FGFR1OP (ProbeSet 11751329_s_at) / Fold change (ACY-1035/veh), FGFR1OP (ProbeSet 11751329_s_at) / Fold change (Aza/veh), VPS36 (ProbeSet 11739960_a_at) / Fold change (ACY-1035/veh), VPS36 (ProbeSet 11739960_a_at) / RFU SYPL1 (11715823_x_at) / Fold change /veh SYPL1 (11715823_x_at) / RFU IGFBP7 (11715501_s_at) / Fold change /veh IGFBP7 (11715501_s_at) / RFU REEP3 (11722064_at) / Fold change /veh REEP3 (11722064_at) / RFU IGLL1 (11728026_x_at) / Fold change /veh IGLL1 (11728026_x_at): dose or concentration left out as unconfirmed
Conditions: ProbeSet 11745428_a_at; LIST D

Structure (SMILES): Nc1ncn([C@@H]2O[C@H](CO)[C@@H](O)[C@H]2O)c(=O)n1 [azacitidine]
- RFU, DFFB: 92.76 RFU
